Legend:
human ERβ = target: T1, human ERβ (Homo sapiens, UniProt Q92731); assay: Competition with [3H]-17β-estradiol for ERβ ligand binding domain; conditions: E. coli lysate expressing ER ligand binding domains (D, E, & F); 2 nM [3H]-17β-estradiol; 5-15 hours at room temperature
T1 construct: made in house; host or cells: E. coli (crude lysate)
Method: (§1) This test procedure provides the methodology for one to determine whether a particular compound binds to the ER (and is therefore, “estrogenic”) and whether there is selectivity for ERα or ERβ. […] The procedure used is described briefly below. A crude lysate of E. coli expressing the ER ligand binding domains (D, E, & F) of human ERα or ERβ was prepared. Both ERs and compounds were diluted in 1× Dulbecco's Phosphate Buffered Saline (DPBS) supplemented with 1 mM EDTA. […] After between 5 and 15 hours at room temperature, the plates were washed with DPBS/1 mM EDTA and bound radioactivity determined by liquid scintillation counting.

human ERα = target: T2, human ERα (Homo sapiens, UniProt P03372); assay: Competition with [3H]-17β-estradiol for ERα ligand binding domain; conditions: E. coli lysate expressing ER ligand binding domains (D, E, & F); 2 nM [3H]-17β-estradiol; 5-15 hours at room temperature
T2 construct: made in house; host or cells: E. coli (crude lysate)
T2 sequence (P03372 311-547 limits assumed): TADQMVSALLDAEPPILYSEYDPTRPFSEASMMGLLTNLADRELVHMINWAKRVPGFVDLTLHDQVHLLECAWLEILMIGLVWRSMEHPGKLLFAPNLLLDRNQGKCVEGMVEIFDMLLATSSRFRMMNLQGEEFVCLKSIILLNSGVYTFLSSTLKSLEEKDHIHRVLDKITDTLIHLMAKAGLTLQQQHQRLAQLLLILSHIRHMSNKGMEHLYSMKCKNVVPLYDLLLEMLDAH
Method: as §1

T1 sequence (Q92731 264-498 limits assumed): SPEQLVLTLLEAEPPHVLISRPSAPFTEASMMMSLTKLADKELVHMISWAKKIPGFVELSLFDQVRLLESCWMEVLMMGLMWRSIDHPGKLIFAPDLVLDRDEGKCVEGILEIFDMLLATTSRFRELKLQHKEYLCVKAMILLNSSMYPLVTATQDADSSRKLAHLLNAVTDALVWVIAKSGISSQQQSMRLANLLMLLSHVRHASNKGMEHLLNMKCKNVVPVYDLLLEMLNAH

Compound: 2,9-DIHYDROXY-5,6-DIHYDRO-BENZO[B]NAPHTHO[2,1-D]FURAN-10-BENZONITRILE [Example 12]
- IC50 (human ERβ): 757 nM
- IC50 (human ERα): 2790 nM

Compound: N#Cc1cc(O)cc2c3c(oc12)-c1ccc(O)cc1CC3 [Example 4, 3,8-DIHYDROXY-5,6-DIHYDRO-BENZO[B]NAPHTHO[2,1-D]FURAN-10-CARBONITRILE]
- IC50 (human ERβ): 1.2 nM
- IC50 (human ERα): 150 nM
- melting point: 355 to 358 °C

Compound: Oc1ccc2c(c1)OCc1c-2oc2ccc(O)cc12 [Example 9, 6H-BENZO[4,5]FURO[3,2-C]CHROMEN-3,8-DIOL]
- IC50 (human ERβ): 4 nM
- IC50 (human ERα): 129 nM

Compound: Oc1ccc2c(c1)oc1c3ccc(O)cc3c(Br)cc21 [Example 3, 5-BROMO-BENZO[B]NAPHTHO[2,1-D]FURAN-3,9-DIOL]
- IC50 (human ERβ): 12 nM
- IC50 (human ERα): 70 nM

Compound: N#Cc1c(O)ccc2c1oc1c3cc(O)ccc3ccc21 [Example 13, 2,9-DIHYDROXY-BENZO[B]NAPHTHO[2,1-D]FURAN-10-CARBONITRILE]
- melting point: 291 to 295 °C

Compound: N#Cc1c(O)ccc2c1oc1c3ccc(O)cc3ccc21 [Example 7, 3,9-DIHYDROXY-BENZO[B]NAPHTHO[2,1-D]FURAN-10-CARBONITRILE]
- IC50 (human ERβ): 3 nM
- IC50 (human ERα): 55 nM
- melting point: > 300 °C

Compound: N#Cc1cc(O)cc2c3c(oc12)-c1ccc(O)cc1OC3 [Example 10, 3,8-DIHYDROXY-6H-BENZO[4,5]FURO[3,2-C]CHROMENE-10-CARBONITRILE]
- IC50 (human ERβ): 2 nM
- IC50 (human ERα): 159 nM

Compound: Oc1ccc2c(c1)OCc1c-2oc2c(Br)cc(O)cc12 [Example 11, 10-BROMO-6H-BENZO[4,5]FURO[3,2-C]CHROMENE-3,8-DIOL]
- IC50 (human ERβ): 1 nM
- IC50 (human ERα): 42 nM

Compound: N#Cc1cc(O)cc2c3c(oc12)-c1ccc(O)cc1CCC3 [Example 5, 3,9-DIHYDROXY-6,7-DIHYDRO-5H-12-OXA-DIBENZO[A,E]AZULEN-11-CARBONITRILE]
- IC50 (human ERβ): 17 nM
- IC50 (human ERα): 1500 nM

Compound: Oc1ccc2c(ccc3c4ccc(O)cc4oc23)c1 [Example 2, BENZO[B]NAPHTHO[2,1-D]FURAN-3,9-DIOL]
- IC50 (human ERβ): 1 nM
- IC50 (human ERα): 12 nM

Compound: Oc1ccc2c(c1)CCc1c-2oc2cc(O)ccc12 [Example 1, 5,6-DIHYDRO-BENZO[B]NAPHTHO[2,1-D]FURAN-3,9-DIOL]
- IC50 (human ERβ): 3 nM
- IC50 (human ERα): 18 nM

Compound: N#Cc1c(O)ccc2c3c(oc12)-c1ccc(O)cc1CC3 [Example 6, 3,9-DIHYDROXY-5,6-DIHYDRO-BENZO[B]NAPHTHO[2,1-D]FURAN-10-CARBONITRILE]
- IC50 (human ERβ): 5 nM
- IC50 (human ERα): 82 nM
- melting point: > 300 °C

Source: US20060004087A1, “Tetracyclic compounds as estrogen ligands” (Wyeth, priority 2004, published 2006)
